# Laboratory results reported in article PMC9127750, “Structure-based design of CDC42 effector interaction inhibitors for the treatment of cancer” (Cell reports, 2022).
# “And” between values parts separate entries of the source, which are not always exact repeats. Equal entries are not always repeated.
# Tested on: WM3248 melanoma cells, 486 antibodies
# Experiment: Reverse phase protein arrays (RPPA)
# Type: cell-based, Human
# Excerpt: Pellets were snap frozen in liquid nitrogen and shipped to MD Anderson Cancer Center core RPPA facility for RPPA analysis (Table S5). Three biological replicates for each sample were generated.
# Nomenclatures on the RPPA heatmaps: name_of_antibody.species_of_antibody.status_of_antibody. V - antibody validated; C - validation of antibody in progress; Q - antibody nonspecific; E – under evaluation; antibodies raised in M - mouse, G - goat, R - rabbit, or T - rat.
smiles,measurement,setting,value
"CN(C)c1cccc(Nc2cc(-c3ccccc3)nc(C3CCNCC3)n2)c1 [ARN22089, N1,N1-dimethyl-N3-(6-phenyl-2-(piperidin-4-yl)pyrimidin-4-yl)benzene-1,3-diamine]",CRABP1.R.C normalized signal,Norm_10 replicates,0.873 and 1.131 and 0.976
same,CRABP2.R.V normalized signal,Norm_10 replicates,0.772 and 1.150 and 0.822
same,CREB_pS133.R.C normalized signal,Norm_10 replicates,1.250 and 0.794 and 1.214
same,CSK.R.C normalized signal,Norm_10 replicates,0.836
same,Calnexin.R.V normalized signal,Norm_10 replicates,0.966 and 1.158 and 0.937
same,Caspase.3.cleaved.R.C normalized signal,Norm_10 replicates,1.008 and 0.891 and 0.879
same,Caspase.7.cleaved..R.C normalized signal,Norm_10 replicates,0.971 and 1.258 and 0.862
same,Caspase.8.M.Q normalized signal,Norm_10 replicates,0.852 and 1.055
same,Caspase.8.cleaved.R.C normalized signal,Norm_10 replicates,0.985 and 0.881 and 0.907
same,Caveolin.1.R.V normalized signal,Norm_10 replicates,0.713 and 1.122 and 1.012
same,Cdc6.R.V normalized signal,Norm_10 replicates,0.858 and 0.962
same,Cdc42.R.C normalized signal,Norm_10 replicates,0.895 and 1.029 and 0.973
same,Chk1.M.C normalized signal,Norm_10 replicates,0.842 and 0.983 and 1.001
same,Chk1_pS296.R.V normalized signal,Norm_10 replicates,1.115 and 0.789 and 0.942
same,Chk1_pS345.R.C normalized signal,Norm_10 replicates,1.171 and 0.894 and 0.992
same,Chk2.M.V normalized signal,Norm_10 replicates,0.819 and 1.005
same,Chk2_pT68.R.C normalized signal,Norm_10 replicates,1.200 and 0.766 and 0.922
same,Claudin.7.R.V normalized signal,Norm_10 replicates,0.930 and 1.663 and 1.163
same,Collagen.VI.R.V normalized signal,Norm_10 replicates,1.420 and 0.935 and 0.899
same,Complex.II.Subunit.M.V normalized signal,Norm_10 replicates,0.889 and 1.275
same,Connexin.43.R.C normalized signal,Norm_10 replicates,1.260 and 0.815
same,Coup.TFII.R.C normalized signal,Norm_10 replicates,0.934 and 0.868
same,Cox2.R.C normalized signal,Norm_10 replicates,1.023 and 1.193 and 0.953
same,Cox.IV.R.V normalized signal,Norm_10 replicates,0.958 and 0.990 and 0.892
same,Creb.R.C normalized signal,Norm_10 replicates,1.051 and 0.927
same,CtIP.R.V normalized signal,Norm_10 replicates,1.000 and 0.898 and 0.962
same,Cyclin.B1.R.V normalized signal,Norm_10 replicates,0.661 and 0.815 and 1.055
same,Cyclin.D1.R.C normalized signal,Norm_10 replicates,0.958 and 1.081 and 0.985
same,Cyclin.D3.M.V normalized signal,Norm_10 replicates,0.818 and 0.939
same,Cyclin.E1.R.V normalized signal,Norm_10 replicates,0.893
same,Cyclophilin.F.M.V normalized signal,Norm_10 replicates,0.808 and 1.114 and 1.018
same,D.a.Tubulin.R.V normalized signal,Norm_10 replicates,0.881 and 0.967 and 0.966
same,DAPK1_pS308.M.C normalized signal,Norm_10 replicates,1.302 and 1.636 and 2.488
same,DAPK2.R.C normalized signal,Norm_10 replicates,0.965 and 1.028 and 0.953
same,DDB.1.R.V normalized signal,Norm_10 replicates,0.974 and 0.680 and 0.815
same,DDR1.R.V normalized signal,Norm_10 replicates,1.019 and 1.079 and 0.961
same,DDR1_pY513.R.C normalized signal,Norm_10 replicates,0.985 and 1.129 and 0.914
same,DJ1.R.V normalized signal,Norm_10 replicates,0.990 and 1.026 and 0.974
same,DM.Histone.H3.R.V normalized signal,Norm_10 replicates,0.928 and 0.824
same,DM.K9.Histone.H3.M.V normalized signal,Norm_10 replicates,0.889 and 1.013
same,DNA.Ligase.IV.R.C normalized signal,Norm_10 replicates,0.935 and 0.869 and 1.008
same,DNA_POLG.R.V normalized signal,Norm_10 replicates,1.018 and 1.199 and 1.023
same,c.Jun_pS73.R.V normalized signal,Norm_10 replicates,0.788 and 0.785 and 0.805
same,c.Kit.R.V normalized signal,Norm_10 replicates,1.136 and 1.324
same,c.Met_pY1234_Y1235.R.V normalized signal,Norm_10 replicates,0.975 and 0.946 and 0.879
same,c.Myc.R.C normalized signal,Norm_10 replicates,2.093 and 1.046
same,cGAS.R.V normalized signal,Norm_10 replicates,0.953 and 1.217 and 0.956
same,cdc2_pY15.R.C normalized signal,Norm_10 replicates,1.104 and 0.582 and 0.878
same,cdc25C.R.V normalized signal,Norm_10 replicates,0.721 and 0.808 and 1.017
same,MYH11.R.C Average,"Norm_20, normalized to Norm_0",1.248
same,Myosin.IIa.R.C Average,"Norm_20, normalized to Norm_0",1.147
same,Myosin.IIa_pS1943.R.V Average,"Norm_20, normalized to Norm_0",1.174
same,Myt1.R.C Average,"Norm_20, normalized to Norm_0",0.994
same,N.Cadherin.R.V Average,"Norm_20, normalized to Norm_0",0.988
same,N.Ras.M.V Average,"Norm_20, normalized to Norm_0",0.878
same,NAPSIN.A.R.C Average,"Norm_20, normalized to Norm_0",1.011
same,NDRG1_pT346.R.V Average,"Norm_20, normalized to Norm_0",1.336
same,NDUFB4.R.V Average,"Norm_20, normalized to Norm_0",1.022
same,NRF2.R.C Average,"Norm_20, normalized to Norm_0",0.907
same,Notch1.R.V Average,"Norm_20, normalized to Norm_0",0.937
same,Notch1.cleaved.R.V Average,"Norm_20, normalized to Norm_0",0.937
same,Notch3.R.C Average,"Norm_20, normalized to Norm_0",0.994
same,Oct.4.R.C Average,"Norm_20, normalized to Norm_0",1.121
same,P.Cadherin.R.C Average,"Norm_20, normalized to Norm_0",1.346
same,PAI.1.M.V Average,"Norm_20, normalized to Norm_0",0.985
same,PAICS.R.C Average,"Norm_20, normalized to Norm_0",0.928
same,PAK1.R.V Average,"Norm_20, normalized to Norm_0",0.872
same,PAK4.R.V Average,"Norm_20, normalized to Norm_0",0.993
same,PAK_pS474_S602_S560.R.V Average,"Norm_20, normalized to Norm_0",1.208
same,PAR.R.C Average,"Norm_20, normalized to Norm_0",2.108
same,PARG.R.C Average,"Norm_20, normalized to Norm_0",1.394
same,PARP.R.V Average,"Norm_20, normalized to Norm_0",1.133
same,PAX6.R.V Average,"Norm_20, normalized to Norm_0",0.967
same,PAX8.R.C Average,"Norm_20, normalized to Norm_0",0.941
same,PCNA.M.C Average,"Norm_20, normalized to Norm_0",0.869
same,PD.1.R.V Average,"Norm_20, normalized to Norm_0",0.984
same,PD.L1.R.C Average,"Norm_20, normalized to Norm_0",0.970
same,PDH.M.V Average,"Norm_20, normalized to Norm_0",0.925
same,PDHA1.R.V Average,"Norm_20, normalized to Norm_0",0.956
same,PDHK1.R.C Average,"Norm_20, normalized to Norm_0",0.952
same,PDK1.R.V Average,"Norm_20, normalized to Norm_0",1.116
same,PDK1_pS241.R.V Average,"Norm_20, normalized to Norm_0",0.965
